Measured values published in patent publication US20240174625A1, “COMPOSITIONS AND METHODS FOR TREATING TAUOPATHIES” (The Regents of the University of California, priority 2021, published 2024).

Assays:
[1] = test system: HEK293T cells; assay: Cell viability assay (CellTiter Glo); type: cell-based, human; conditions: for IC50: Homo sapiens, HEK-293T, log10 transformed, IC50 = concentration that suppresses 50% cell viability, HEK293T cells; for Therapeutic index: ratio of IC50 (cell viability) over EC50 (NPEPPS activity)
Method in brief: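 HEK293T cells seeded at 16,500 per well on poly-L-ornithine in minimal medium with amino acids, vitamins and AlbuMax in HBS, with compound added as a 20-step 2-fold dilution. CellTiter Glo luminescence was read after 24 h. Viability is the signal normalized to DMSO control.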

[2] = test system: phosphorylated tau; assay: Tau histopathology in hTau^P301S mouse model of tauopathy; type: in vivo; conditions: hTau^P301S homozygous mice; 20 mg/kg/day s.c. for 28 days; compared to vehicle
From the text: Adult hTau^P301S homozygous mice (Tg2541Godt mice, a transgenic mouse model of tauopathy carrying a human Tau^P301S mutation^19 and wild-type (WT) littermates on a C57BL/6J background of both genders were used in the in vivo efficacy on Tau histopathology experiments. hTauP301S homozygous mice were obtained as gifts from Dr. Michel Goedert at MRC Laboratory of Molecular Biology, Cambridge, UK and Dr. Stanley Prusiner at UCSF, USA, and were re-derived onto a pure C57BL/6J genetic background by Dr. Prusiner's lab. Mice were periodically outcrossed with WT C57BL/6J mice (Strain #000664) from Jackson Laboratory (Bar Harbor, ME) to maintain genetic diversity. Animals were group-housed in a temperature-controlled facility (73±2° F., 45% humidity, regular 12-hour light/dark cycle, lights on at 7 AM), with food and water ad libitum. All experimental procedures were approved by the ARC administrative office at the University of California Los Angeles (UCLA) and the UCLA institutional animal care and use committee (IACUC) and followed the USDA Animal Welfare Act Regulations, the Public Health Service (PHS) Policy on Humane Care and Use of Laboratory Animals, and the Guide for the Care and Use of Laboratory Animals. Adult male WT mice on a C57BL/6J background (Strain #000664), purchased from Jackson Laboratory (Bar Harbor, ME), were used in the in vivo pharmacokinetics and blood-brain barrier penetration studies. Animals were randomly assigned to experimental groups and tested by experimenters blinded to experimental conditions.
Osmotic minipump (model #2004) were purchased from Alzet (Cupertino, CA, USA) and implanted into mice subcutaneously (s.c.) following the manufacturer's instruction, as previously described^20. Briefly, animals are placed on a thermoregulation device and anesthetized using isoflurane [4-5% (induction), 1.5-2.5% (maintenance)]. A sterile drape is used to create a sterile field for surgery after animal preparation. […] Animals are monitored observed continuously during the immediate anesthetic-recovery period until the animal is ambulatory. Animals are monitored daily after anesthetic recovery for 7 days. […]
Assessment of tau histopathological in a mouse model of tauopathy Effects of pharmacological manipulations of JMM compounds on tau histopathology were evaluated via osmotic pump chronic infusion at 20 mg/kg/day s.c. over 28 consecutive days in hTau^P301S homozygous mice or WT littermates, starting treatment at the onset of Tau histopathology (i.e., 4.2 months old age). […] Animals are weighted (g) and rectal temperature (° C.) was measured using a thermometer equipped with a mouse rectal probe (Braintree Scientific Inc., Braintree, MA) on treatment day 27. […]

SMILES	IC50 [1]	Therapeutic index [1]	tau histopathology in the cortex (phosphorylated tau staining) [2]
c1ccc(COc2ccc(CNc3nsc4ccc(OCc5ccccc5)cc34)cc2)cc1 [JMM083]	1550 µM	2189.48	reduced
COc1ccc(CNc2nsc3ccccc23)cc1OC [JMM001]	64.6 µM	4.05	
c1ccc2c(c1)-c1ccccc1C2Nc1nsc2ccccc12 [JMM052]	1230 µM	72.24	does not significantly reduce
CN(Cc1ccc(C(F)(F)F)cc1)c1nsc2ccccc12 [JMM067]	126 µM	15.54	
c1ccc2c(CNc3nsc4ccccc34)cccc2c1 [JMM013]	407 µM	27.36	reduced
